Data on 27 compounds can be found in PubChem BioAssay AID720666 (NMMLSC, 2013).

Calls of active or inactive are those of the source.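 The calls were made as follows: active = over 50% inhibition of PKC substrate or ERK kinase phosphorylation; inactive = the rest.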

The assay deals with TALL-104 cells, PKC substrate phosphorylation, flow cytometry. Put plainly: blockers of stimulated PKC activity in TALL-104 – TALL-104 cells, flow cytometry, CherryPick01, mechanism study for lytic granule exocytosis inhibitor project, late-stage follow-up (AID 720666). To be noted: at 30 µM; stronger effect = higher value. (In general: Flow cytometry measures light scatter and fluorescence of single cells or particles in a stream.)

For the compound `CN(C)CCNC(=O)c1ccc(-c2cn3c(-c4ccc(Oc5ccccc5)cc4)cnc3cn2)cc1`, the inhibition (as a rule, the relative decrease from the control value, in per cent) was 5.3% (inactive). Under `COc1ccc(-n2sc3ccccc3c2=O)cc1` stands 0% (inactive); under `CC(C)(c1ccccc1)c1ccc(OCC(O)CNC2CCN(Cc3ccccc3)CC2)cc1` (configuration not stated), -98.8% (inactive); under `O=CNc1cc(-c2ccsc2)cn2c(-c3ccccc3)cnc12`, -35.4% (inactive). For the compound `Cc1ccc(S(=O)(=O)n2ccc3c(OCCOCCNCc4ccc(F)cc4)cccc32)cc1`, the inhibition was -25.9% (inactive).

With `CCN(CC)CCCNc1ccc(-c2nnc(-c3ccc(OCC(C)C)cc3)o2)cn1`, the inhibition is -94.2% (inactive). Then `O=C1CC(Sc2nnnn2-c2ccccc2)C(=O)N1c1cccc(Cl)c1` (configuration not stated), with -30.8% (inactive); and `Cc1ccc(Nc2nc(NCc3ccco3)c3ccccc3n2)cc1`, with -25.2% (inactive); and `COC(=O)c1c(NC(=O)c2nc3ccccc3s2)sc2c1CC(C)(C)NC2(C)C`, with -30.7% (inactive). Consider `COc1ccc(-c2cc(NC=O)c3ncc(-c4ccccc4)n3c2)cc1OC`, for which the inhibition was -38.6% (inactive). As for `CCCCC[C@@H](C)N1C[C@@H](COCc2ccccc2)Oc2cc(N3CC[C@H](N(C)C)C3)ccc2S1(=O)=O`, the inhibition was -45.9% (inactive). Then `COc1ccc(-c2cc(NC=O)c3ncc(-c4cccc(OC)c4)n3c2)cc1`, with -43.6% (inactive); and `O=C(Cn1sc2ccccc2c1=O)NC12CC3CC(CC(C3)C1)C2`, with -7.9% (inactive). With `O=c1c2ccc(F)cc2sn1-c1ccccc1`, the inhibition is -40.1% (inactive). In the case of `COc1ccccc1CNc1nc(NCc2ccc(C(C)C)cc2)c2sccc2n1`, the inhibition was -50.7% (inactive).

With `COc1ccc(N2C(=O)CC(Sc3nnc(-c4ccccc4)o3)C2=O)cc1` (configuration not stated), the inhibition is 1.3% (inactive). With `CCOC(=O)c1c(NC(=O)COc2ccccc2OCC)sc2c1CC(C)(C)NC2(C)C`, the inhibition is -9.9% (inactive). As to `CC1=C(C)CS(=O)N(S(=O)(=O)c2ccc(Cl)cc2)C1` (configuration not stated), the inhibition is -41.1% (inactive). For `CC1COCC(C)N1C1=C(Cl)C(=O)c2ccccc2C1=O` (configuration not stated), the inhibition is -212% (inactive). `O=C(CN1C(=O)/C(=C\c2cccc(Br)c2)Oc2ccccc21)NCCCN1CCOCC1`: the inhibition is 6.3% (inactive). In the case of `O=c1c2ccccc2sn1-c1ccccc1`, the inhibition was -24.9% (inactive). As to `O=C(Cn1sc2ccccc2c1=O)Nc1ccc(F)cc1`, the inhibition was -10.3% (inactive).

For the compound `CC1=NOC(=O)/C1=C/c1ccc(-c2ccc(Cl)cc2)o1`, the inhibition is -44% (inactive). With `N#Cc1c(Nc2ccccc2Cl)s[nH]c1=O`, the inhibition was -74.8% (inactive). Consider `CCCCC[C@@H](C)N1C[C@H](COCc2ccccc2)Oc2cc(N3CC[C@@H](N(C)C)C3)ccc2S1(=O)=O`, for which the inhibition is -58.8% (inactive). `Cc1cc(N2CCN(c3nc(-c4ccc([N+](=O)[O-])cc4)cs3)CC2)c2ccccc2n1`: the inhibition was -81.1% (inactive).

Regarding `CCCCC[C@@H](C)N1C[C@@H](COCc2ccccc2)Oc2cc(N3CC[C@@H](N(C)C)C3)ccc2S1(=O)=O`, the inhibition was -3.7% (inactive).
